According to ChEMBL document CHEMBL1177845, “Efficient synthesis and identification of novel propane-1,3-diamino bridged CCR5 antagonists with variation on the basic center carrier” (Eur J Med Chem, 2010):
Blank lines part the entries; values can stand above or below the compound they belong to.

Columns and labels:
[1] = target: T1, C-C chemokine receptor type 5 (Homo sapiens, UniProt P51681); experiment: Antagonist activity at CCR5 expressed in CHO cells assessed as inhibition of RANTES-stimulated GTPgammaS binding at 30 nM by scintillation proximity assay
Target sequence in this assay (P51681 whole entry, looked up): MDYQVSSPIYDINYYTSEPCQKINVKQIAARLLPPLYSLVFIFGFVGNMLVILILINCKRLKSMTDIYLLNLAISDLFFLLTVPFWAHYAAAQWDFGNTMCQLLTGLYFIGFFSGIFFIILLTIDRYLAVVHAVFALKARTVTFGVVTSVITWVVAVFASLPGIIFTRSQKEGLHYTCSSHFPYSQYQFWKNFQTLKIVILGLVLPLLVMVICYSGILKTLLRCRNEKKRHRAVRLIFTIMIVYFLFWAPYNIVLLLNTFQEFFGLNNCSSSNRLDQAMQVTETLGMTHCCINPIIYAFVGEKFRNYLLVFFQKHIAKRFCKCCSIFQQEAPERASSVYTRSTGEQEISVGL

[2] = target: T1, C-C chemokine receptor type 5; experiment: Antagonist activity at CCR5 expressed in CHO cells assessed as inhibition of RANTES-stimulated GTPgammaS binding at 300 nM by scintillation proximity assay
Target sequence in this assay (P51681 whole entry, looked up): as above

[3] = target: T1, C-C chemokine receptor type 5; experiment: Antagonist activity at CCR5 expressed in CHO cells assessed as inhibition of RANTES-stimulated GTPgammaS binding by scintillation proximity assay; assay type: functional, cell-based
Target sequence in this assay (P51681 whole entry): as the sequence (P51681 whole entry, looked up) above

Structure (SMILES): CC(=O)N(c1ccc(N2CCN(CC[C@H](NC(=O)C3CCCCC3)c3ccc(C(F)(F)F)cc3)CC2)cc1)C(C)C
IC50 [3]: > 10 µM

Structure (SMILES): Cc1nc2cccnc2n1[C@H]1C[C@H]2CC[C@@H](C1)N2CC[C@H](NC(=O)c1ccc(F)cc1)c1cccc2ccccc12
IC50 [3]: 10 µM

Structure (SMILES): COC(=O)C1(Cc2ccccc2)CCN(CC[C@H](NC(=O)C2CCC2)c2cccc3ccccc23)CC1
IC50 [3]: > 10 µM

Structure (SMILES): CC(C)N(Cc1ccccc1)c1ccc(N2CCN(CC[C@H](NC(=O)C3CCCCC3)c3ccc(C(F)(F)F)cc3)CC2)cc1
IC50 [3]: > 10 µM

Structure (SMILES): O=C(N[C@@H](CCN1CCC(CO)(Cc2ccccc2)CC1)c1ccc(C(F)(F)F)cc1)C1CCC1
IC50 [3]: > 10 µM

Structure (SMILES): COC(=O)C1(Cc2ccccc2)CCN(CC[C@H](NC(=O)C2CCC2)c2ccc(C(F)(F)F)cc2)CC1
IC50 [3]: 10 µM

Structure (SMILES): Cc1nnc(C(C)C)n1[C@H]1C[C@H]2CC[C@@H](C1)N2CC[C@H](NC(=O)COc1ccccc1)c1ccc(C(F)(F)F)cc1
IC50 [3]: 0.253 µM

Second part, the compound after the results:

inhibition [1]: 35%
inhibition [2]: 44%
Structure (SMILES): CC1(NC(=O)c2cccnc2)CCN(CC[C@H](NC(=O)C2CCCCC2)c2cccc(F)c2)CC1

inhibition [1]: 36%
inhibition [2]: 97%
Structure (SMILES): CC1(NC(=O)Cc2ccc(Cl)c(Cl)c2)CCN(CC[C@H](NC(=O)C2CCCCC2)c2cccc(F)c2)CC1

inhibition [1]: 21%
inhibition [2]: 46%
Structure (SMILES): CC1(NC(=O)CC23CC4CC(CC(C4)C2)C3)CCN(CC[C@H](NC(=O)C2CCCCC2)c2cccc(F)c2)CC1

inhibition [1]: 6%
inhibition [2]: 29%
Structure (SMILES): CC1(NC(=O)C2CCCCC2)CCN(CC[C@H](NC(=O)C2CCCCC2)c2cccc(F)c2)CC1

inhibition [1]: 3%
inhibition [2]: 7%
Structure (SMILES): CC1(NC(=O)c2ccc(C(F)(F)F)cc2)CCN(CC[C@H](NC(=O)C2CCCCC2)c2cccc(F)c2)CC1

inhibition [1]: 31%
inhibition [2]: 95%
Structure (SMILES): CC1(NC(=O)Cc2ccc(F)cc2)CCN(CC[C@H](NC(=O)C2CCCCC2)c2cccc(F)c2)CC1

inhibition [1]: 28%
inhibition [2]: 91%
Structure (SMILES): CC1(NC(=O)Cc2ccc(Cl)cc2)CCN(CC[C@H](NC(=O)C2CCCCC2)c2cccc(F)c2)CC1

inhibition [1]: 9%
inhibition [2]: 33%
Structure (SMILES): COc1ccc(C(=O)NC2(C)CCN(CC[C@H](NC(=O)C3CCCCC3)c3cccc(F)c3)CC2)cc1
